Measurements published in US4940730A, “Angiogenesis enhancer” (Takeda Chemical Industries, Ltd., priority 1987, dated 1990).

System: hen's chlorioallantoic membrane
Test: CAM (Chorio Allantoic Membrane) assay
Type: in vivo
Conditions: for ED50: amount of drug which gave the numerical value 5 (positive rate) in CAM assay; for Positive rate of CAM assay: average neovascularization score (++=10, +=7, °=3, -=0), 3 days on membrane
Experimental: CAM (Chorio Allantoic Membrane) assay was conducted on various compounds of the present invention. The technique of the CAM assay was that modified somewhat on Auerbach's method [Developmental Biology, 41, 391 (1974)]. More specifically, hen's fertile eggs were incubated for three days at 37° C. (Napco carbon dioxide incubator-6300 was employed, CO2 :0% H2 O saturated). Polypropylene-made discs (6 mm. diameter) were spotted with a chloroform:ethanol (1:4 by volume) solution of each compound so that the concentration may be 0, 0.25, 0.64, 1.6, 4, 10 and 25 ug, respectively. The test materials were air-dried in a clean bench, which were then placed quietly on hen's chlorioallantoic membrane, followed by incubation at 37° C. for further three days. Then, the vascularization state was observed. In the tables, the positive rates were calculated on the following basis. Namely, degrees of neovascularization were determined as ++ for very strong, + for strong, ° for weak and - for negative, and they were numerized as 10, 7, 3 and 0, respectively. The average numerical value in each of the concentrations of the respective samples was made as positive rate. Further, the amount of the drug which gave the numerical value 5 in each sample was shown as ED50 value (ug/disc).

[1] = amount of sample 0.64 μg per disc
[2] = amount of sample 1.6 μg per disc
[3] = amount of sample 10 μg per disc
[4] = amount of sample 25 μg per disc

Row | SMILES | ED50 | Positive rate of CAM assay [1] | Positive rate of CAM assay [2] | Positive rate of CAM assay (amount of sample 4 μg per disc) | Positive rate of CAM assay [3] | Positive rate of CAM assay [4]
1 | CCCCCCCC/C=C\CCCCCCCC(N)=O [Oleamide] | 16.7 ug/disc | 0 | 0.6 | 0 | 7.8 | 6.8
2 | CCCCCCCCC1OC1CCCCCCCCCCCCO (centres unmarked) [13, 14-Eopxy-docosan-1-ol] | 5.18 ug/disc | 0 | 0 | 3.3 | 9.3 | 10
3 | CCCCCCCCCCCCCCCC(N)=O [Palmitamide] | 15.6 ug/disc | 0 | 0 | 0.3 | 2.4 | 7.7
4 | CCCCCCCC/C=C/CCCCCCCCCCCC(N)=O [Brassidamide] | 1.89 ug/disc | 0 | 2.0 | 7.4 | 9.3 | 10
5 | CCCCC/C=C\C/C=C\C/C=C\C/C=C\CCCC(N)=O [Arachidonamide] | 6.13 ug/disc | 1.3 | 1.6 | 2.9 | 7.4 | 9.6
6 | CCCCCCCC/C=C\CCCCCCCCCCCC(=O)NC [N-methyl, N-methyl erucamide] | 2.90 ug/disc | 0.8 | 2.3 | 7.8 | 10 | 10
7 | CCCCCCCCCCCCCCCCCCCC(N)=O [Arachidamide] | 11.5 ug/disc | 0 | 2.8 | 3.4 | 4.6 | 7.4
8 | CCCCCCCCC(O)C(O)CCCCCCCCCCCC(=O)O (centres unmarked) [Erucic acid diOH] | 3.45 ug/disc | 0 | 2.0 | 7.4 | 8.2 | 10
9 | CCCCCCCCC1OC1CCCCCCCCCCCC(N)=O (centres unmarked) [13,14-Epoxyerucamide] | 2.22 ug/disc | 1.5 | 3.3 | 8.5 | 10 | 10
10 | CCCCCCCCCCCCCCCCCC(=O)O [Stearic acid] | 7.14 ug/disc | 0 | 0 | 1.8 | 6.8 | 9.4
11 | CC/C=C\C/C=C\C/C=C\C/C=C\C/C=C\C/C=C\CCC(=O)O [Docosahexaenoic acid] | – | 0 | 0 | 0 | 0.6 | 4.8
12 | CCCCC/C=C\C/C=C\CCCCCCCC(=O)O [Linoleic acid] | 7.69 ug/disc | 0 | 1.8 | 2.5 | 6 | 10
13 | CCCCCCCC/C=C/CCCCCCCC(=O)O [Elaidic acid] | – | 0 | 0 | 3 | 4 | 4
14 | CCCCCCCC/C=C/CCCCCCCCCCCC(=O)O [Brassidic acid] | 1.82 ug/disc | 3.5 | 6 | 6 | 9.3 | 10
15 | CCCCCCCCCCCCCCCCCCCC(=O)O [Arachidic acid] | 4.00 ug/disc | 0 | 4.6 | 4.6 | 7.6 | 8.8
16 | CCCCCCCC/C=C\CCCCCCCCCCCCCC(=O)O [Nervonic acid] | 2.75 ug/disc | 1.8 | 2.5 | 7.8 | 9.3 | 8.5
17 | CCCCCCCCC(O)C(O)CCCCCCCCCCCC(N)=O (centres unmarked) [Erucamide, diOH, 13,14-dihydroxydocosanamide] | 5.62 ug/disc | 0 | 2.0 | 3.8 | 7.0 | 9.4
18 | CCCCCCCCCCCCCC(N)=O [Myristamide] | – | 0 | 0 | 1.3 | 2.6 | 3.5
19 | CCCCCCCCCCCCCCCCCCCCCCCC(=O)O [Lignoceric acid] | 4.61 ug/disc | 1.4 | 2 | 4.6 | 7.6 | 6.2
20 | CCCCCCCC/C=C\CCCCCCCCCCCC(=O)N1C(C(=O)O)CSC1c1ccncc1 (centres unmarked) [2-Py-Thia-CO2 H] | 2.67 ug/disc | 2.8 | 2.6 | 6.8 | 10 | 10
21 | CCCCCCCC/C=C\CCCCCCCCCCCC(=O)NCC(=O)O [carboxymethyl amine] | 6.58 ug/disc | 0 | 0 | 2.6 | 7.0 | 10
22 | CCCCCCCC/C=C\CCCCCCCCCCCC(=O)N1CCC[C@H]1C(=O)OC [proline methylester, N-erucoyl-proline methyl ester] | 4.00 ug/disc | 0.8 | 2.3 | 5.0 | 7.8 | 10
23 | CCCCCC[C@@H](O)C/C=C\CCCCCCCC(=O)O [Ricinoleic acid] | – | 0 | 1.8 | 1.2 | 2.6 | 3.2
24 | C=CCCCCCCCCCCCCCCCCCCCC [1-Docosene] | 5.46 ug/disc | 0 | 0 | 2.5 | 10 | 9.3
25 | CCCCCCCCCCCCCCCC(=O)O [Palmitic acid] | 14.5 ug/disc | 0 | 0 | 0 | 3.2 | 7.6
